Reference: patent US20240082406A1, “BENZOHETEROCYCLE SUBSTITUTED TETRAHYDROISOQUINOLINE COMPOUND” (SHANGHAI JEMINCARE PHARMACEUTICAL CO., LTD, priority 2020, published 2024)

Key:
Sprague-Dawley rats [1] = assay: Inhibition of phosphate and sodium absorption in the intestine of rats by a single dose; assay type: in vivo, rat; conditions: normal rats
Experimental: Compound D1-P1-S was evaluated by measuring urinary phosphorus, urinary sodium concentration and fecal form.
(§1) Six-week-old Sprague-Dawley rats were purchased from Beijing Vital River Laboratory Animal Technology Co., Ltd. Two animals per cage were placed in SPF class animal rooms for acclimatization for about a week. Throughout the study period, animals were fed feed and water freely and the light cycle was 12 h light/12 h dark. Animal groups: vehicle group, n=5; tenapanor 0.3 mg/kg group, n=5; D1-P1-S 0.03 mg/kg group, n=5; D1-P1-S 0.1 mg/kg, n=5; D1-P1-S 0.3 mg/kg, n=5; D1-P1-S1.0 mg/kg, n=5.
On the day of the experiment, after 8 hours of fasting, the animals were administered the test compound or solvent (0.5% Tween 80+99.5% distilled water) by gavage. The animals were then transferred into metabolic cages for single-cage feeding, and the feed was restored. After 16 hours of administration, urine samples were collected and food consumption was recorded, and the fecal form in the collection funnel was evaluated by two independent observations. Standard for fecal form score: 1, normal pellets; 2, slightly soft feces (pellets adhered to the side wall of the collector due to moisture); 3, soft feces (loss the normal shape of the pellets); 4, loose and amorphous (completely loss shape, with blot pattern); 5, diarrhea (watery feces). Fecal form score (FFS) in rats was determined by averaging two independent observation scores for all rats within the same group (n=5); the vehicle group mean was 1.
The urine was centrifuged at 3220 g for 5 minutes at 4° C., and the urinary phosphorus concentration (phosphomolybdic acid UV endpoint colorimetric method) and urinary sodium concentration (ion selective electrode method) were measured.
(§2) Results were indicated as mean±standard error (Means±SEM). Urinary phosphorus excretion amount (or urinary sodium excretion amount) in rats was standardized corrected against respective dietary phosphorus (or sodium) intake, and the formula was: standardized correction value of urinary phosphorus excretion amount (indicated as nP)=urinary phosphorus excretion amount÷dietary phosphorus intake amount; standardized correction value of urinary sodium excretion amount (indicated as nNa)=urinary sodium excretion amount÷dietary sodium intake amount; fecal form score was analyzed by monofactorial variance, and verified by non-parametric test. *, p<0.05; **, p<0.01; * p<0.001; ****, p<0.0001.

Sprague-Dawley rats [2] = assay: Effects of multiple administrations on serum phosphorus concentration in rats; assay type: in vivo, rat; conditions: for 24 h nP, course: after 15 days
Experimental: Compound D1-P1-S was evaluated by measuring serum phosphorus concentration, urinary phosphorus, urinary sodium concentration and fecal form in rats.
as §1, with “Tenapanor 0.05” for “tenapanor 0.3 mg/kg group, n=5; D1-P1-S 0.03 mg/kg group, n=5; D1-P1-S 0.1”, “0.01” for “0.3”, “D1-P1-S 0.05 mg/kg, n=5; D1-P1-S 0.5 mg/kg, n=5; D1-P1-S 1.0” for “D1-P1-S1.0”
After the start of the experiment, the feeding rhythm of the rats was adjusted to diurnal feeding by fasting overnight for 16 hours and recovering feed for 8 hours during the day. After the administration started, the test compound or the solvent (0.5% Tween 80+99.5% distilled water) was gavaged twice a day during the feeding period, with an interval of 4 hours, for 14 consecutive days. Animal body weight and food consumption were measured every day, serum phosphorus concentration (including baseline value before administration), 24-hour urinary phosphorus excretion amount, and 24-hour urinary sodium excretion amount were measured 1-2 times a week, and feces form in the collection funnel was scored (through two independent observations to assess fecal form). Standard for fecal form score: 1, normal pellets; 2, slightly soft feces (pellets adhered to the side wall of the collector due to moisture); 3, soft feces (loss the normal shape of the pellets); 4, loose and amorphous (completely loss shape, with blot pattern); 5, diarrhea (watery feces). Fecal form score (FFS) in rats was determined by averaging two independent observation scores for all rats within the same group (n=5); the vehicle group mean was 1.
After standing at room temperature for 2 hours, the blood was centrifuged at 4500 g for 10 minutes at 4° C.; and the urine was centrifuged at 3220 g for 5 minutes at 4° C., and the serum phosphorus concentration and urinary phosphorus concentration (phosphomolybdic acid UV endpoint colorimetric method), urinary sodium concentration (indirect ion electrode method) were measured.
as §2, with “error (Means±SEM), n=5 animals/group.” for “error (Means±SEM).”, “by two-way” for “by monofactorial”, “p<0.01; ***,” for “p<0.01; *”, “****, p<[…].” for “****, p<0.0001.”

[3] = 1 day of treatment at 0.01, 0.05, 0.5 and 1.0 mg/kg

water content in rat feces (fecal form) (Sprague-Dawley rats [1]; single gavage, with increasing dose): tendency of increasing
fecal form score vs solvent control (Sprague-Dawley rats [2]; 1 day of treatment at 0.05, 0.5 and 1.0 mg/kg): significantly increased
loose feces (Sprague-Dawley rats [2]; high doses of 0.5 mg/kg and 1.0 mg/kg, observed less often as administration continued): more severe loose feces
loose feces (Sprague-Dawley rats [2]; low dose of 0.01 mg/kg): no rats had loose feces
Structure (SMILES): CN1Cc2c(Cl)cc(Cl)cc2C(c2ccc3cn(CCOCCOCCNC(=O)NCCCCNC(=O)NCCOCCOCCn4cc5ccc([C@@H]6CN(C)Cc7c(Cl)cc(Cl)cc76)cc5n4)nc3c2)C1 (stereo partly drawn) [Embodiment D1-P1-S]
urinary phosphorus excretion amount, dose dependence (Sprague-Dawley rats [1]; single gavage 0.03-1.0 mg/kg, urine collected after 16 hours): dose-effect relationship
urinary sodium excretion amount (Sprague-Dawley rats [1]; single gavage, 16 h urine): significantly reduce
urinary phosphorus excretion amount (Sprague-Dawley rats [1]; single gavage, doses of 0.3 mg/kg and 1.0 mg/kg, 16 h urine): significantly reduce
effect in reducing urinary phosphorus excretion amount compared with Tenapanor (Sprague-Dawley rats [1]; single gavage, same dose (0.3 mg/kg)): better than Tenapanor
24 h nNa (urinary sodium excretion / dietary sodium intake) vs solvent group (Sprague-Dawley rats [2]; [3]): decreased significantly
24 h nP (urinary phosphorus excretion / dietary phosphorus intake) vs solvent group (Sprague-Dawley rats [2]; [3]): tended to decrease
24 h nP vs solvent group (Sprague-Dawley rats [2]; 1 day of treatment, 1.0 mg/kg): significantly decreased
24 h nP vs solvent group (Sprague-Dawley rats [2]; 10 days of treatment at 0.01, 0.05, 0.5 and 1.0 mg/kg): decreased significantly
24 h nNa (Sprague-Dawley rats [2]; after 10 days of treatment, 0.01 mg/kg and 0.05 mg/kg): increasing trend
24 h nP, course (Sprague-Dawley rats [2]): tended to be stable
24 h nP, course (Sprague-Dawley rats [2]; low dose group (0.01 mg/kg)): tended to increase
serum phosphorus, course after 10 days (Sprague-Dawley rats [2]; all dose groups except the highest dose group of 1.0 mg/kg): tended to be stable
serum phosphorus concentration vs solvent control (Sprague-Dawley rats [2]; gavage twice a day, 0.5 mg/kg or 1.0 mg/kg for 4 days): significantly decreased
serum phosphorus concentration vs solvent control (Sprague-Dawley rats [2]; twice a day, 10 days of treatment at 0.01, 0.05, 0.5, 1.0 mg/kg): decreased significantly
